What all share (assay): growth of human tumour cells (NCI), 48 h
Experiment [1] concerns MOLT-4.
Experiment [2] relates to SNB-19.
Experiment [3] deals with PC-3.
In experiment [4] the test system is NCI-H522.
Experiment [5] has as its system OVCAR-5.
The subject of experiment [6] is HCT-116.
Experiment [7] deals with NCI-H23.
For experiment [8], the system named is SW-620.
Experiment [9] relates to EKVX.
The test system of experiment [10] is CCRF-CEM.
For experiment [11], the system named is Malme-3M.
Experiment [12] concerns UACC-257.
Experiment [13] concerns UO-31.
For experiment [14], the system named is M14.
Experiment [15] deals with SN12C.
In experiment [16] the test system is Hs-578T.
Experiment [17] relates to SF-295.
For experiment [18], the system named is K562.
The test system of experiment [19] is U-251.
In experiment [20] the test system is SF-539.

SMILES strings stand for the structures.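 A five-concentration, 48-hour dose response in 96-well plates underlies each endpoint, interpolated linearly between surrounding concentrations. The concentration for 50% growth inhibition is given as GI50.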 Activity calls are given as the source filed them. Rule as the data show it: active = GI50 up to about 1.1 µM and inactive = higher.

In the case of `NC(=O)NC(CC(=O)O)C(=O)O` (centres undefined), the GI50 in [1], in experiment [2], in [3], in experiment [4], in [5] and in [6] was > 100 µM (inactive) throughout. Also, the GI50 in [7] is > 100 µM (inactive); in [8], > 100 µM (inactive); in experiment [9] it was > 100 µM (inactive); in experiment [10] it was > 100 µM (inactive); in experiment [11] it was > 100 µM (inactive); in experiment [12], 93.3 µM (inactive). Moreover, the GI50 in experiment [13], in experiment [14], in experiment [15], in experiment [16], in experiment [17] and in experiment [18] was > 100 µM (inactive) throughout. Further, the GI50 in [19] was > 100 µM (inactive).
In the case of `CC1=NN(c2nc(N)nc(/C(C#N)=C\c3csc([N+](=O)[O-])c3)n2)C(C)(C)C1`, the GI50 in experiment [1] was > 100 µM (inactive); in experiment [3], 20.6 µM (inactive); in experiment [4] it was 21.3 µM (inactive); in experiment [5], 34.7 µM (inactive); in [6], 47.4 µM (inactive); in experiment [7], 32.1 µM (inactive). In addition, the GI50 in experiment [8] was 68.7 µM (inactive); in experiment [20], 27.2 µM (inactive); in [9], 30.2 µM (inactive); in experiment [10], 2.23 µM (inactive); in [12], 45.7 µM (inactive); in experiment [13] it was 37.4 µM (inactive). The GI50 was > 100 µM (inactive) in [14]; 22.5 µM (inactive) in experiment [16]; 45.5 µM (inactive) in experiment [17]; 39.4 µM (inactive) in experiment [18]; 19.3 µM (inactive) in [19].
`COc1ccc(SC(C)(SC)c2ccccn2)c(OC)n1` (centres undefined): the GI50 was 3.22 µM (inactive) in experiment [1]; > 100 µM (inactive) in [2]; 76.2 µM (inactive) in [3]; 36.3 µM (inactive) in experiment [4]; > 100 µM (inactive) in experiment [5]; 48.3 µM (inactive) in [6]. Besides, the GI50 in experiment [7] is 35.4 µM (inactive); in [8], > 100 µM (inactive); in experiment [20], > 100 µM (inactive); in [9] it was > 100 µM (inactive); in [11], 71.1 µM (inactive); in experiment [12] it was 67.3 µM (inactive). Besides, the GI50 in experiment [13] was > 100 µM (inactive); in [14] it was > 100 µM (inactive); in experiment [15] it was > 100 µM (inactive); in experiment [16] it was 91.2 µM (inactive); in experiment [17], 49.2 µM (inactive); in experiment [18] it was 51.4 µM (inactive). Moreover, the GI50 in experiment [19] was > 100 µM (inactive).
On to `O=C1C=C(N2CCN(CCOCCO)CC2)C(=O)c2c(O)ccc(O)c21`, for which the GI50 is 18.4 µM (inactive) in [2]; 3.07 µM (inactive) in experiment [3]; 2.9 µM (inactive) in [4]; 3.9 µM (inactive) in [5]; 2.02 µM (inactive) in [6]; 2.21 µM (inactive) in experiment [7]. The GI50 is 2.31 µM (inactive) in experiment [8]; 10.6 µM (inactive) in [20]; 19.6 µM (inactive) in experiment [9]; 3.17 µM (inactive) in experiment [10]; 1.52 µM (inactive) in experiment [11]; 1.62 µM (inactive) in experiment [12]. Also, the GI50 in experiment [13] was 10.3 µM (inactive); in [14], 1.56 µM (inactive); in [15], 4.22 µM (inactive); in experiment [16], 20.1 µM (inactive); in experiment [17] it was 14 µM (inactive); in [18] it was 3.17 µM (inactive). For the same molecule, the GI50 in experiment [19] was 4.02 µM (inactive).
In the case of `CCOC(=O)C#Cc1cccc(C#CC(=O)OCC)c1`, the GI50 in [2] was 5.71 µM (inactive); in experiment [3] it was 6.21 µM (inactive); in experiment [4], 15.8 µM (inactive); in experiment [5], 1.14 µM (inactive); in experiment [6] it was 2.37 µM (inactive); in experiment [7], 3.66 µM (inactive). The GI50 in experiment [8] is 5.25 µM (inactive); in [20], 5.14 µM (inactive); in experiment [9], 1.14 µM (inactive); in experiment [10], 1.22 µM (inactive); in [11], 5.14 µM (inactive); in experiment [12], 10.2 µM (inactive). In addition, the GI50 is 4.51 µM (inactive) in [13]; 2.13 µM (inactive) in experiment [14]; 3.03 µM (inactive) in experiment [15]; 9.55 µM (inactive) in experiment [16]; 1.65 µM (inactive) in experiment [17]; 1.91 µM (inactive) in [18]. Moreover, in [19], the GI50 was 4.71 µM (inactive).
Consider `CO[C@H]1O[C@@H]2CO[C@@H](c3ccccc3)O[C@H]2[C@@H]2CC=CCC[C@]12O`, for which the GI50 in experiment [1] is 25.1 µM (inactive); in experiment [2], > 100 µM (inactive); in experiment [3], 40.9 µM (inactive); in experiment [4], 16.5 µM (inactive); in experiment [5], > 100 µM (inactive); in experiment [6], 30.1 µM (inactive). Further, the GI50 is 36.6 µM (inactive) in experiment [7]; 54.1 µM (inactive) in experiment [8]; 36.8 µM (inactive) in [9]; 31 µM (inactive) in experiment [10]; 12.6 µM (inactive) in experiment [11]; 35.6 µM (inactive) in experiment [12]. For the same molecule, the GI50 in [13] was 48.2 µM (inactive); in [14], 72.6 µM (inactive); in experiment [15], 61.8 µM (inactive); in [16], 0.052 µM (active); in experiment [17], 74.5 µM (inactive); in [18], 33.9 µM (inactive). Also, in [19], the GI50 is 60.3 µM (inactive).
Consider `Cc1ccc2c(=O)c(-c3n[nH]c(=S)s3)c[nH]c2n1`, for which the GI50 is > 100 µM (inactive) in [1]; > 100 µM (inactive) in experiment [2]; > 100 µM (inactive) in [3]; 82.8 µM (inactive) in [4]; > 100 µM (inactive) in experiment [5]; > 100 µM (inactive) in experiment [6]. For the same molecule, the GI50 in experiment [7], in experiment [8], in experiment [9], in experiment [10], in experiment [11] and in experiment [12] was > 100 µM (inactive) in each case. Further, the GI50 in experiment [13], in [14], in [15], in experiment [16], in experiment [17] and in [18] was > 100 µM (inactive) throughout. Besides, the GI50 in [19] is > 100 µM (inactive).
As to `COC1=Nc2ccccc2S(=O)(=O)C=C1`, the GI50 was 24.7 µM (inactive) in experiment [2]; 15 µM (inactive) in [3]; 1.21 µM (inactive) in experiment [4]; 16.9 µM (inactive) in experiment [5]; 1.74 µM (inactive) in experiment [6]; 6.35 µM (inactive) in [7]. For the same molecule, the GI50 in experiment [8] was 1.73 µM (inactive); in experiment [20], 16.7 µM (inactive); in experiment [9], 7.69 µM (inactive); in experiment [10], 0.342 µM (active); in [11], 2.5 µM (inactive); in experiment [12], 7.69 µM (inactive). Besides, the GI50 in [13] is 5.46 µM (inactive); in experiment [14] it was 7.64 µM (inactive); in [15] it was 14.4 µM (inactive); in experiment [16] it was 18.7 µM (inactive); in experiment [17], > 45.4 µM (inactive); in experiment [19], 11.4 µM (inactive).

Source of the values: ChEMBL document CHEMBL1201862, “PubChem BioAssay data set” (2004).
